pIC50: −log10 of the molar value. {Fl} = fluorescein label
Assays:
[1] = system: human breast cancer cell line, MDA-231; test: Cytotoxicity analysis (ATPLITE cell viability), MDA-231; assay type: cell-based; conditions: for TRA-8-mediated apoptosis of induced resistant cells in presence of chemotherapeutic agent: MDA-231 resistant cells, 0.1 μM taxol, 1 μM Adriamycin, 100 μM cisplatin or 5 μM BisVIII
Method: (§1) Cells (1,000 cells per well) were seeded into 96-well plate in triplicate with eight concentrations (double serial dilutions from 1000 ng/ml) of TRA-8, 2E12, or TRAIL. Cell viability was determined after overnight culture using ATPLITE assay according to the manufacture's instructions (Packard Instruments, Meriden, Conn.). The results are presented as the precentage of viable cells in treated wells compared to medium control wells.
(§2) Cells (5×10^5/ml) were incubated with a starting dose of 1 ng/ml TRA-8 for two days. Cells were split with fresh medium and incubated with a double dose of TRA-8 every two days until TRA-8 dose reached 2,000 ng/ml. At each treatment cycle, the cell viability of non-induced (parental) and induced cells treated with an inducing dose of TRA-8 was determined by ATPLITE assay.

[2] = system: caspase activation and PARP cleavage in MDA231 cells; test: Western blot of caspase cascade activation in MDA231 cells; assay type: cell-based, human; conditions: MDA-231 resistant cells, single agent alone at 4 hours (1,000 ng/ml TRA-8 or 1 μM Adriamycin)
Method: Tumor cells (3×10^6) were washed twice with cold PBS and lysed with 300 μl lysis buffer containing 10 mM Tris-HCl (pH 7.6), 150 mM NaCl, 0.5 mM EDTA, 1 mM EGTA, 0.1% SDS, 1 mM sodium orthovanadate, and a mixture of protease inhibitors (1 mM phenylmethylsulfonyl fluoride, 1 μg/ml pepstatin A, 2 μg/ml aprotinin). Lysates were sonicated for 10 seconds, and centrifuged for 20 minutes at 12,000 g. The cell lysates with equal amount of total proteins were boiled for 5 minutes with SDS-PAGE sample buffer. Total cell lysates were separated in 8%, 10%, or 12% SDS-PAGE, and electrophoretically transferred to nitrocellulose membrane. The blots were blocked with 5% nonfat dry milk in TBST buffer (20 mM Tris-HCl (pH 7.4), 500 mM NaCl, and 0.1% Tween 20) and incubated with primary antibody in blocking buffer at 4° C. overnight. The blots were washed three times with TBST and probed with HRP-conjugated secondary antibodies for one hour at room temperature. After washing four times with TBST, the probed proteins were visualized using the ECL Western blotting detection system (Amersham Biosciences, Piscataway, N.J.) according to the manufacturer's instructions.

[3] = system: human ovarian cancer cell line, UL-3C; test: Cytotoxicity analysis (ATPLITE cell viability), UL-3C; assay type: cell-based; conditions: for TRA-8-mediated apoptosis of induced resistant cells in presence of chemotherapeutic agent: UL-3C resistant cells, 0.1 μM taxol, 1 μM Adriamycin, 100 μM cisplatin or 5 μM BisVIII
Method: as §1, §2

Cdk5/p35 = Cdk5/p35 (Homo sapiens, UniProt Q00535); conditions: cited from earlier work
Sequence of Cdk5/p35 (Q00535 whole entry, species assumed): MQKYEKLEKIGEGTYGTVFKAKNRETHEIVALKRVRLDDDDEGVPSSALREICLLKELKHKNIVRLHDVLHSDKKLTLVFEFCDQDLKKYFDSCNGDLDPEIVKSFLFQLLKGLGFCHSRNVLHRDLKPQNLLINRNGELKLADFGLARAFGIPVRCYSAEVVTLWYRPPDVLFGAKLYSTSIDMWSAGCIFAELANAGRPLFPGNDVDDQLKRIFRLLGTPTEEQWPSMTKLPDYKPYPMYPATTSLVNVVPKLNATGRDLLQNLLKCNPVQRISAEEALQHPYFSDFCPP
Sequence of Cdk5/p35 (Q15078 whole entry partner, species assumed): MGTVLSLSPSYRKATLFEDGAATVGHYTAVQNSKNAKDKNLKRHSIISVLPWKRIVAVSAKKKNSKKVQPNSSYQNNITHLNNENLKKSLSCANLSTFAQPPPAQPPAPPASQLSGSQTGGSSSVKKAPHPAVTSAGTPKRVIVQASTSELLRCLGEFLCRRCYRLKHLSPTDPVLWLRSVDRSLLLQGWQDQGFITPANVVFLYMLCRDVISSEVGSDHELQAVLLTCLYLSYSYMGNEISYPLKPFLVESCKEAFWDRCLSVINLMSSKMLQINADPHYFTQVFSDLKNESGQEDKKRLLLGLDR

GSK-3 [4] = conditions: cited from earlier work
Cdk1/B = conditions: cited from earlier work
GSK-3 [5] = conditions: cited from earlier work; remark: listed apart in the source
panel of tumor cells = test: TRA-8-induced apoptosis in panel of tumor cells after DDX3 sRNAi oligo (ATPLite); assay type: cell-based; conditions: including some spontaneous resistant cells; various concentrations of TRA-8 overnight
Method: as §1, with “Cytotoxicity analysis of tumor cell susceptibility to TRA-8, 2E12, and TRAIL-mediated apoptosis. Cells” for “Cells”, “plates” for “plate”, “an ATPLITE™” for “ATPLITE”, “manufacturer's” for “manufacture's”
(§3) They were then cloned into the BLOCK-iT U6 entry vector. The shRNA is driven by the U6 promoter and can be transiently expressed in most dividing or nondividing mammalian cell types. Resistant cells were transfected with RNAi used LIPOFECTAMINE 2000 (Invitrogen) for the RNAi response. The decreased DDX3 expression was determined by Western blot analysis using anti-DDX3 antibody 36 hours after transfection. Once decreased DDX3 expression was achieved, the siRNA oligo was synthesized (Target sequence: […] (SEQ ID NO:27): Sense RNA 5′-Fl-[…] (Fl-SEQ ID NO:27) (Fl=fluorescein); Anti-senseRNA 5′-[…]-3′ (SEQ ID NO:28), and RNAi control oligo (RI-010-DP) was purchased from Molecula (Columbia, Md.).

[6] = system: DDX3 in panel of tumor cells; test: DDX3 expression in panel of tumor cells after DDX3 sRNAi oligo (Western blot); assay type: cell-based; conditions: 48 hours after transfection
Excerpt: as §3, with “The decreased DDX3 expression was determined by Western blot analysis using anti-DDX3 antibody 36 hours after transfection.” left out

COc1cccc2c1C(=O)c1c(O)c3c(c(O)c1C2=O)C[C@@](O)(C(=O)CO)C[C@@H]3O[C@H]1C[C@H](N)[C@H](O)[C@H](C)O1 [Adriamycin]
TRA-8-mediated apoptosis of induced resistant cells in presence of chemotherapeutic agent [1]: TRA-8 dose-dependent response was restored | activation of caspases 2, 3, 8, 9 [2]: did not induce any significant activation | TRA-8-mediated apoptosis of induced resistant cells in presence of chemotherapeutic agent [3]: TRA-8 dose-dependent response was restored

CCCCc1c(-c2ccc(OC)cc2)[nH]c2nccnc12 [Aloisine, 7-n-Butyl-6-(4-methoxyphenyl)[5H]pyrrolo[2,3-b]pyrazine]
pIC50 (Cdk5/p35): 5.82 | pIC50 (GSK-3 [4]): 6.04 | pIC50 (Cdk1/B): 6.15

[Be+2] [Beryllium ions]
inhibition of GSK-3 (GSK-3 [4]): micromolar range

Cn1cc(C2=C(c3cn(CCCN)c4ccccc34)C(=O)NC2=O)c2ccccc21 [Bisindolymaleimide VIII]
TRA-8-mediated apoptosis of induced resistant cells in presence of chemotherapeutic agent [1]: TRA-8 dose-dependent response was restored | TRA-8-mediated apoptosis of induced resistant cells in presence of chemotherapeutic agent [3]: TRA-8 dose-dependent response was restored

N.N.[Cl][Pt][Cl] [Cisplatin]
TRA-8-mediated apoptosis of induced resistant cells in presence of chemotherapeutic agent [1]: TRA-8 dose-dependent response was restored | TRA-8-mediated apoptosis of induced resistant cells in presence of chemotherapeutic agent [3]: TRA-8 dose-dependent response was restored

CC(C)NCC(O)c1ccc(O)c(O)c1 (stereo not shown) [Isoproterenol]
decrease of GSK-3 activity (GSK-3 [5]): approximately 50%

Cn1cc(C2=C(c3ccc(Cl)cc3Cl)C(=O)NC2=O)c2ccccc21 [SB216763]
inhibition of GSK-3 (GSK-3 [4]): potent

CC(=O)O[C@H]1C(=O)[C@@]2(C)[C@H]([C@H](OC(=O)c3ccccc3)[C@]3(O)C[C@H](OC(=O)[C@H](O)[C@@H](NC(=O)c4ccccc4)c4ccccc4)C(C)=C1C3(C)C)[C@]1(OC(C)=O)CO[C@@H]1C[C@@H]2O [Taxol]
TRA-8-mediated apoptosis of induced resistant cells in presence of chemotherapeutic agent [1]: TRA-8 dose-dependent response was restored | TRA-8-mediated apoptosis of induced resistant cells in presence of chemotherapeutic agent [3]: TRA-8 dose-dependent response was restored

DDX3 RNAi: synthesized siRNA oligo, target sequence GGAGAAATTATCATGGGAAAC (SEQ ID NO:27), antisense SEQ ID NO:28 (sense GGAGAAAUUAUCAUGGGAAAC; antisense GUUUCCCAUGAUAAUUUCUCC; sense: RNA, 5' {Fl}, backbone not given here; antisense: RNA, backbone not given here)
TRA-8-induced apoptosis (panel of tumor cells): enhanced the TRA8-induced apoptosis | amount of endogenous DDX3 [6]: reduced the amount of endogenous DDX3

TRAIL: Recombinant soluble TRAIL purchased from Alexis Biochemicals
susceptibility of TRA-8 resistant cells to induced apoptosis ([1]; MDA-231R cells vs parental): still susceptible | susceptibility to apoptosis, in vitro cytotoxicity assay ([1]; parental MDA-231 cells): susceptible to apoptosis | susceptibility of TRA-8 resistant cells to induced apoptosis ([3]; UL-3CR cells vs parental): still susceptible | susceptibility to apoptosis, in vitro cytotoxicity assay ([3]; parental UL-3C cells): susceptible to apoptosis

insulin: comparator for decrease of GSK-3 activity
decrease of GSK-3 activity (GSK-3 [5]): approximately 50%
